± gives the standard deviation of the averaged measurements.
What was measured:
Test in all cases: level (log10 ratio to DMSO vehicle control); higher = higher biomarker level / cell amount than vehicle control
Tetrafluorosuccinic acid = compound: O=C(O)C(F)(F)C(F)(F)C(=O)O [Tetrafluorosuccinic acid]; conditions: in DMSO
Procedure: (§1)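 BioMAP Diversity Plus panel of 12 human primary cell co-culture systems (3C, 4H, LPS, SAg, BT, BF4T, BE3C, CASM3C, HDF3CGF, KF3CT, MyoF, Mphg). Compounds were added 1 h before stimulation and left for 24 h (MyoF 48 h; BT 72 h for soluble read-outs or 6 d for IgG). Biomarkers were read by ELISA, cytotoxicity by SRB, PBMC viability and proliferation by Alamar Blue. Each well value was divided by the mean of 8 DMSO control wells on the same plate and log10 transformed; duplicate blinded samples were tested at 4 concentrations.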

Perfluorooctanoic acid = compound: O=C(O)C(F)(F)C(F)(F)C(F)(F)C(F)(F)C(F)(F)C(F)(F)C(F)(F)F [Perfluorooctanoic acid]; conditions: in DMSO
Procedure: as §1

[1] = compound: OCCC(F)(F)C(F)(F)C(F)(F)C(F)(F)C(F)(F)C(F)(F)C(F)(F)C(F)(F)F [8:2 Fluorotelomer alcohol]; conditions: 6700 nM; in DMSO
Procedure: as §1

[2] = compound: OCCCCC(F)(F)C(F)(F)C(F)(F)C(F)(F)F [4:4 Fluorotelomer alcohol]; conditions: in DMSO
Procedure: as §1

[3] = compound: OCC(F)(F)C(F)(F)C(F)(F)C(F)(F)C(F)(F)C(F)(F)C(F)(F)C(F)(F)CO [1H,1H,10H,10H-Perfluorodecane-1,10-diol]; conditions: in DMSO
Procedure: as §1

[4] = compound: FC(F)(F)COC(OCC(F)(F)F)OCC(F)(F)F [tris(Trifluoroethoxy)methane]; conditions: in DMSO
Procedure: as §1

Methotrexate = compound: CN(Cc1cnc2nc(N)nc(N)c2n1)c1ccc(C(=O)N[C@@H](CCC(=O)O)C(=O)O)cc1 [Methotrexate]; conditions: in DMSO
Procedure: as §1

Row | Test System | level (log10) (Tetrafluorosuccinic acid; 6700 nM) | level (log10) (Tetrafluorosuccinic acid; 20000 nM) | level (log10) (Tetrafluorosuccinic acid; 60000 nM) | level (log10) (Perfluorooctanoic acid; 6700 nM) | level (log10) (Perfluorooctanoic acid; 20000 nM) | level (log10) (Perfluorooctanoic acid; 60000 nM) | level (log10) [1] | level (log10) ([2]; 6700 nM) | level (log10) ([2]; 20000 nM) | level (log10) ([2]; 60000 nM) | level (log10) ([3]; 6700 nM) | level (log10) ([3]; 20000 nM) | level (log10) ([3]; 60000 nM) | level (log10) ([4]; 6700 nM) | level (log10) ([4]; 20000 nM) | level (log10) ([4]; 60000 nM) | level (log10) (Methotrexate; 1500 nM) | level (log10) (Methotrexate; 4400 nM) | level (log10) (Methotrexate; 13000 nM) | level (log10) (Methotrexate; 40000 nM)
1 | CASM3C:LDLR | 0.0005 ± 0.0035 | -0.02 ± 0.014 | 0.0015 ± 0.019 | -0.011 | 0.001 ± 0.013 | 0.004 ± 0.014 | -0.0045 ± 0.0078 | 0.016 ± 0.0042 | 0.0175 ± 0.022 | 0.03 ± 0.042 | -0.016 ± 0.035 | 0.0035 ± 0.016 | -0.048 | -0.0325 ± 0.022 | -0.0055 ± 0.015 | 0.008 ± 0.013 | 0.011 ± 0.0042 | 0.0465 ± 0.042 | 0.0205 ± 0.022 | 0.0455 ± 0.066
2 | MyoF:CXCL8/IL-8 | -0.013 ± 0.0099 | -0.019 ± 0.014 | 0.006 ± 0.025 | 0.022 ± 0.0028 | 0.0725 ± 0.026 | 0.078 ± 0.02 | 0.023 ± 0.0014 | 0.041 ± 0.075 | 0.0345 ± 0.1 | 0.0695 ± 0.13 | -0.0285 ± 0.0021 | -0.033 ± 0.013 | 0.025 | -0.0155 ± 0.035 | -0.0125 ± 0.0078 | 0.0195 ± 0.015 | 0.0055 ± 0.028 | 0.0135 ± 0.016 | -0.0035 ± 0.033 | 0.0105 ± 0.022
3 | HDF3CGF:TIMP-1 | -0.05 ± 0.023 | -0.017 ± 0.0042 | -0.0155 ± 0.035 | -0.015 ± 0.034 | -0.029 ± 0.0099 | 0.0155 ± 0.00071 | -0.013 ± 0.0042 | -0.006 ± 0.017 | -0.001 ± 0.034 | 0.02 ± 0.057 | 0.0025 ± 0.0078 | 0.0135 ± 0.0092 | -0.307 | -0.0195 ± 0.047 | 0.011 ± 0.02 | -0.001 ± 0.042 | -0.08 ± 0.073 | -0.047 ± 0.082 | -0.0525 ± 0.14 | -0.0755 ± 0.1
4 | lMphg:CD40 | -0.0125 ± 0.015 | -0.011 ± 0.0014 | 0.009 ± 0.014 | -0.0035 ± 0.021 | -0.021 ± 0.0057 | -0.018 ± 0.014 | -0.0275 ± 0.0035 | -0.0295 ± 0.005 | -0.0195 ± 0.029 | -0.0055 ± 0.033 | -0.0285 ± 0.0064 | -0.0695 ± 0.032 | -0.536 | -0.0235 ± 0.044 | -0.0135 ± 0.012 | -0.0265 ± 0.032 | 0.0125 ± 0.005 | 0.0005 ± 0.013 | -0.0155 ± 0.023 | 0.0045 ± 0.0021
5 | HDF3CGF:CCL2/MCP-1 | -0.035 ± 0.0099 | -0.0415 ± 0.0064 | -0.0275 ± 0.012 | -0.0345 ± 0.044 | -0.0305 ± 0.04 | -0.0085 ± 0.057 | -0.0175 ± 0.032 | 0.004 ± 0.0014 | 0.008 ± 0.0099 | 0.007 ± 0.016 | -0.01 | -0.0565 ± 0.036 | -0.724 | 0.0035 ± 0.06 | 0.006 ± 0.051 | 0.0165 ± 0.035 | -0.0395 ± 0.059 | -0.0325 ± 0.093 | -0.0425 ± 0.071 | -0.0435 ± 0.11
6 | CASM3C:Serum Amyloid A | 0.011 ± 0.011 | 0.017 ± 0.018 | 0.025 ± 0.037 | -0.002 ± 0.013 | 0.006 ± 0.051 | 0.022 ± 0.038 | 0.0015 ± 0.016 | -0.0055 ± 0.025 | -0.01 ± 0.047 | 0.0295 ± 0.063 | -0.011 ± 0.0042 | -0.016 ± 0.0057 | -0.059 | -0.028 ± 0.027 | -0.026 ± 0.04 | 0.0045 ± 0.044 | -0.0405 ± 0.015 | -0.0145 ± 0.028 | 0.002 ± 0.045 | -0.044 ± 0.068
7 | HDF3CGF:CXCL11/I-TAC | -0.03 ± 0.035 | -0.0215 ± 0.005 | -0.0565 ± 0.071 | -0.0205 ± 0.011 | -0.016 ± 0.027 | -0.007 ± 0.024 | -0.04 ± 0.024 | 0.0075 ± 0.0078 | 0.0205 ± 0.0092 | -0.001 ± 0.014 | 0.013 ± 0.0042 | -0.031 ± 0.025 | -0.497 | -0.01 ± 0.0014 | -0.0125 ± 0.021 | -0.0145 ± 0.026 | -0.0095 ± 0.013 | -0.0105 ± 0.033 | -0.008 ± 0.023 | -0.018 ± 0.05
8 | HDF3CGF:CXCL10/IP-10 | -0.0225 ± 0.0078 | -0.027 ± 0.04 | -0.0425 ± 0.064 | -0.0035 ± 0.011 | -0.017 ± 0.016 | -0.03 ± 0.034 | -0.039 ± 0.0085 | 0.0065 ± 0.0092 | 0.0155 ± 0.013 | 0.0105 ± 0.016 | -0.0045 ± 0.028 | -0.0355 ± 0.0035 | -0.578 | 0.0005 ± 0.0092 | -0.002 ± 0.0071 | -0.015 ± 0.0057 | 0.013 ± 0.0028 | 0.002 ± 0.0057 | 0.0035 ± 0.00071 | -0.001 ± 0.016

— the supplement of paper PMC10331698
